In EPA's ToxValDB 9.5 (doi:10.2903/j.efsa.2010.1707):
≈ marks a conversion by molar mass, not a printed value.

Tests used:
[1] = system: Aphidius rhopalosiphi; experiment: LR50; higher = less toxic; conditions: not reported; mortality
[2] = system: Typhlodromus pyri; experiment: LR50; higher = less toxic; conditions: not reported; mortality
[3] = system: Pimephales promelas; conditions: chronic/long-term; duration: 34 days; other
[4] = system: Oryctolagus sp.; conditions: developmental; development
[5] = system: Bibionidae; conditions: chronic/long-term; duration: 28 days
[6] = system: Canidae; conditions: chronic; duration: 1 years; oral; Dog Other; clinical chemistry
[7] = system: Colinus virginianus
[8] = system: Rattus norvegicus; conditions: oral
[9] = system: Anas platyrhynchos
[10] = system: Cyprinodon variegatus; conditions: acute; duration: 96 hours; mortality
[11] = system: Tagia sp.
[12] = system: Daphnia magna; conditions: chronic/long-term; duration: 21 days; growth
[13] = system: Apis mellifera; conditions: acute; duration: 48 hours; oral; unspecified; mortality
[14] = system: Oncorhynchus mykiss; conditions: acute; duration: 96 hours; mortality
[15] = system: Folsomia candida; conditions: chronic/long-term; duration: 28 days

## CCCN(CCC)c1c([N+](=O)[O-])cc(S(N)(=O)=O)cc1[N+](=O)[O-] [Oryzalin]
[1]
  LR50: > 3850 g/ha
[2]
  LR50: < 3850 g/ha
[3]
  NOEC: 0.22 mg/L
[4]
  NOAEL: 25 mg/kg-day
[5]
  NOEC: 1 mg/L
[6]
  NOAEL: 5 mg/kg-day
[7]; acute, oral, diet, mortality
  LD50: > 691 mg/kg-day
[7]; reproduction developmental
  NOEL: 28 mg/kg-day
[8]; acute, mortality
  LD50: > 5000 mg/kg-day
[8]; subchronic, duration: 90 days, hematological
  NOAEL: 5 mg/kg-day
[9]; reproductive
  NOEL: 41 mg/kg-day
[9]; short-term, oral, feed, mortality
  LD50: > 1350 mg/kg-day
[10]
  LC50: > 3.04 µg/mL
[11]; acute, duration: 14 days, mortality
  LC50: > 103 mg/kg
[11]; chronic/long-term, duration: 56 days
  NOEC: 34.3 mg/kg
[12]
  NOEC: 0.36 mg/L
[13]
  LD50: 32 µg/piece
[14]
  LC50: 2.86 µg/mL (≈ 8.26 µM)
[15]
  NOEC: 34.3 mg/kg
